Key:
[1] = target: CDK18/Cyclin Y (Homo sapiens) (UniProt Q07002+Q8ND76); assay: Inhibition of recombinant full length human GST-tagged CDK18/Cyclin Y (2 to end amino acids) expressed in insect expression system at 0.1 uM using serine/threonine-12 peptide as substrate incubated for 60 mins by Z'-LYTE assay relative to control
[2] = target: MAP kinase-interacting serine/threonine-protein kinase 2 (Homo sapiens) (UniProt Q9HBH9); assay: Inhibition of tracer 236 binding to full length human GST-tagged MKNK2 expressed in baculovirus expression system at 0.1 uM measured after 60 mins by Lanthascreen assay relative to control
[3] = target: Serine/threonine-protein kinase 17A (Homo sapiens) (UniProt Q9UEE5); assay: Inhibition of tracer 236 binding to recombinant full length human GST-tagged DRAK1 expressed in baculovirus expression system at 0.1 uM measured after 60 mins by Lanthascreen assay relative to control
[4] = target: Sphingosine kinase 1 (Homo sapiens) (UniProt Q9NYA1); assay: Inhibition of recombinant full length human GST-tagged SPHK1 expressed in baculovirus expression system at 0.1 uM using Sphingosine Lipid as substrate incubated for 60 mins by Adapta assay relative to control
[5] = target: Mitogen-activated protein kinase kinase kinase 8 (Homo sapiens) (UniProt P41279); assay: Inhibition of recombinant human GST-tagged TPL2 catalytic domain (30 to 397 residues) expressed in baculovirus expression system at 0.1 uM using serine/threonine-3 peptide as substrate incubated for 60 mins by Z'-LYTE assay relative to control
[6] = target: Casein kinase I isoform alpha (Homo sapiens) (UniProt P48729); assay: Inhibition of recombinant full length human GST-tagged CK1alpha1 expressed in baculovirus expression system at 0.1 uM using serine/threonine-11 peptide as substrate incubated for 60 mins by Z'-LYTE assay relative to control
[7] = target: Tyrosine-protein kinase Mer (Homo sapiens) (UniProt Q12866); assay: Inhibition of recombinant human GST-tagged MER (578 to 872 residues) expressed in baculovirus expression system at 0.1 uM using tyrosine-2 peptide as substrate incubated for 60 mins by Z'-LYTE assay relative to control
[8] = target: Mitogen-activated protein kinase kinase kinase 2 (Homo sapiens) (UniProt Q9Y2U5); assay: Inhibition of tracer 236 binding to recombinant full length human GST-tagged MEKK2 expressed in baculovirus expression system at 0.1 uM measured after 60 mins by Lanthascreen assay relative to control
[9] = target: Insulin receptor-related protein (Homo sapiens) (UniProt P14616); assay: Inhibition of recombinant human GST-tagged IRR (944 to 1297 residues) expressed in baculovirus expression system at 0.1 uM using tyrosine-4 peptide as substrate incubated for 60 mins by Z'-LYTE assay relative to control
[10] = target: Dual specificity protein kinase CLK3 (Homo sapiens) (UniProt P49761); assay: Inhibition of recombinant full length human GST-tagged CLK3 expressed in Baculovirus expression system at 0.1 uM using serine/threonine-18 peptide as substrate incubated for 60 mins by Z'-LYTE assay relative to control
[11] = target: Serine/threonine-protein kinase Nek6 (Homo sapiens) (UniProt Q9HC98); assay: Inhibition of recombinant full length human GST-tagged NEK6 expressed in insect expression system at 0.1 uM using serine/threonine-22 peptide as substrate incubated for 60 mins by Z'-LYTE assay relative to control
[12] = target: Casein kinase I isoform epsilon (Homo sapiens) (UniProt P49674); assay: Inhibition of recombinant full length human His-tagged CK1 epsilon1 expressed in baculovirus expression system at 0.1 uM using serine/threonine-11 peptide as substrate incubated for 60 mins by Z'-LYTE assay relative to control
[13] = target: cGMP-dependent protein kinase 1 (Homo sapiens) (UniProt Q13976); assay: Inhibition of recombinant full length human GST-tagged PKG1 alpha expressed in baculovirus expression system at 0.1 uM using CREBtide as substrate 60 mins by Lanthascreen assay relative to control
[14] = target: Activin receptor type-1 (Homo sapiens) (UniProt Q04771); assay: Inhibition of tracer 236 binding to recombinant human GST-tagged ALK2 catalytic domain (145 to 509 residues) expressed in baculovirus at 0.1 uM measured after 60 mins by Lanthascreen assay relative to control
[15] = target: Serine/threonine-protein kinase MARK1 (Homo sapiens) (UniProt Q9P0L2); assay: Inhibition of recombinant full length human GST-tagged MARK1 expressed in baculovirus expression system at 0.1 uM using serine/threonine-21 peptide as substrate incubated for 60 mins by Z'-LYTE assay relative to control
[16] = target: Tyrosine-protein kinase JAK3 (Homo sapiens) (UniProt P52333); assay: Inhibition of recombinant human GST-tagged JAK3 catalytic domain (781 to 1124 residues) expressed in baculovirus expression system at 0.1 uM using tyrosine-6 peptide as substrate incubated for 60 mins by Z'-LYTE assay relative to control
[17] = target: Proto-oncogene tyrosine-protein kinase receptor Ret (Homo sapiens) (UniProt P07949); assay: Inhibition of recombinant human GST-tagged RET (658 to 1114 residues) expressed in baculovirus expression system at 0.1 uM using tyrosine-2 peptide as substrate incubated for 60 mins by Z'-LYTE assay relative to control
[18] = target: RAC-beta serine/threonine-protein kinase (Homo sapiens) (UniProt P31751); assay: Inhibition of recombinant full length human His-tagged AKT2 expressed in baculovirus expression system at 0.1 uM using serine/threonine-06 peptide as substrate incubated for 60 mins by Z'-LYTE assay relative to control
[19] = target: Ribosomal protein S6 kinase alpha-1 (Homo sapiens) (UniProt Q15418); assay: Inhibition of recombinant full length human His-tagged RSK1 expressed in baculovirus expression system at 0.1 uM using serine/threonine-6 peptide as substrate incubated for 60 mins by Z'-LYTE assay relative to control
[20] = target: Fibroblast growth factor receptor 4 (Homo sapiens) (UniProt P22455); assay: Inhibition of recombinant human His-tagged FGFR4 catalytic domain ([…]) expressed in baculovirus expression system at 0.1 uM using tyrosine-4 peptide as substrate incubated for 60 mins by Z'-LYTE assay relative to control
[21] = target: Serine/threonine-protein kinase PLK2 (Homo sapiens) (UniProt Q9NYY3); assay: Inhibition of recombinant full length human GST-tagged PLK2 expressed in baculovirus expression system at 0.1 uM using serine/threonine-16 peptide as substrate incubated for 60 mins by Z'-LYTE assay relative to control
[22] = target: Inhibitor of nuclear factor kappa-B kinase subunit alpha (Homo sapiens) (UniProt O15111); assay: Inhibition of recombinant full length human His-tagged IKKalpha expressed in baculovirus expression system at 0.1 uM incubated for 60 mins by Adapta assay relative to control
[23] = target: Ribosomal protein S6 kinase alpha-5 (Homo sapiens) (UniProt O75582); assay: Inhibition of recombinant full length human GST-tagged MSK1 expressed in baculovirus expression system at 0.1 uM using serine/threonine-1 peptide as substrate incubated for 60 mins by Z'-LYTE assay relative to control

cGMP-dependent protein kinase 1 (Homo sapiens), sequence (Q13976 whole entry, the tested form may be a part): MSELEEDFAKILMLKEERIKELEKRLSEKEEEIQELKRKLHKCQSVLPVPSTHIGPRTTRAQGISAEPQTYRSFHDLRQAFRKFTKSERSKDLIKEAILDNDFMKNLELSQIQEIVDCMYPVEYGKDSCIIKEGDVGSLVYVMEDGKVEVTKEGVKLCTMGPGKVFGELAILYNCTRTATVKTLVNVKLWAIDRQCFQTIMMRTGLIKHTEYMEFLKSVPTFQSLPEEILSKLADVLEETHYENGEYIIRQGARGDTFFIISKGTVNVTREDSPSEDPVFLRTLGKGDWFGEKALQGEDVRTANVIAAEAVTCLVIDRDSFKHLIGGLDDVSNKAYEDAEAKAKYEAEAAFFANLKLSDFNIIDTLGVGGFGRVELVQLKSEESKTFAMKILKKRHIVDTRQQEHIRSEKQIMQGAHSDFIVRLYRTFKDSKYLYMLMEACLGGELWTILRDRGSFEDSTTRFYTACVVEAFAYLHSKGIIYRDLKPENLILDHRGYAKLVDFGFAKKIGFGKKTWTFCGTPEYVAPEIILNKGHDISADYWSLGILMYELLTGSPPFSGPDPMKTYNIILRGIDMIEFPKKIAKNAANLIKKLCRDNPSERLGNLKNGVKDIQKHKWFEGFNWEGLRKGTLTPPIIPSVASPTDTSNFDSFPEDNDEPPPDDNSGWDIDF
RAC-beta serine/threonine-protein kinase (Homo sapiens), sequence (P31751 whole entry): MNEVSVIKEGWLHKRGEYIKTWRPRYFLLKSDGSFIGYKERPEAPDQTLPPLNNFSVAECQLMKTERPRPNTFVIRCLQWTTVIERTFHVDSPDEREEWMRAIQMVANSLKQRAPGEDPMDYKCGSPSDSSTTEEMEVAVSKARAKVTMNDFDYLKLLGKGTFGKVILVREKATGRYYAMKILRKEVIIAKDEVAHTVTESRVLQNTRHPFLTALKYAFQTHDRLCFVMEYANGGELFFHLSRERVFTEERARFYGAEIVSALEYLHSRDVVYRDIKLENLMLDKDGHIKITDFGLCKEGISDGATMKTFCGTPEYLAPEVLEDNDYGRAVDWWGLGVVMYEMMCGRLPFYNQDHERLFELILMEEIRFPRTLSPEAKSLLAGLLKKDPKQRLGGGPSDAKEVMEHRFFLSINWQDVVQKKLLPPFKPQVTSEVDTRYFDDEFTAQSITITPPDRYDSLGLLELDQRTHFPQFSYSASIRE
Activin receptor type-1 (Homo sapiens), sequence (Q04771 whole entry, the tested form may be a part): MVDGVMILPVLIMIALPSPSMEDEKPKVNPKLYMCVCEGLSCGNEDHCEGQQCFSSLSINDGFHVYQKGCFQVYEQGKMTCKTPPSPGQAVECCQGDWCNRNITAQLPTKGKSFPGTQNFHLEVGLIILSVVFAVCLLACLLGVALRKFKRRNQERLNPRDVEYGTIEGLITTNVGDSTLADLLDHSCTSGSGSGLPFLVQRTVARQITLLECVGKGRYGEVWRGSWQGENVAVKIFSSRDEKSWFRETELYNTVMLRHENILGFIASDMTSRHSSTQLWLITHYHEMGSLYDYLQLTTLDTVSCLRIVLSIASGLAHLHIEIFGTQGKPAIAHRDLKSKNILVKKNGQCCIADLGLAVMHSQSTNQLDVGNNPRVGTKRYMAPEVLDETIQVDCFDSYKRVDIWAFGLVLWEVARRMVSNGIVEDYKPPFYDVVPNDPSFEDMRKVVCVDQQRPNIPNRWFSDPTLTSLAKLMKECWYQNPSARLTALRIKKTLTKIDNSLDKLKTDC
Serine/threonine-protein kinase MARK1 (Homo sapiens), sequence (Q9P0L2 whole entry, looked up, the tested form may be a part): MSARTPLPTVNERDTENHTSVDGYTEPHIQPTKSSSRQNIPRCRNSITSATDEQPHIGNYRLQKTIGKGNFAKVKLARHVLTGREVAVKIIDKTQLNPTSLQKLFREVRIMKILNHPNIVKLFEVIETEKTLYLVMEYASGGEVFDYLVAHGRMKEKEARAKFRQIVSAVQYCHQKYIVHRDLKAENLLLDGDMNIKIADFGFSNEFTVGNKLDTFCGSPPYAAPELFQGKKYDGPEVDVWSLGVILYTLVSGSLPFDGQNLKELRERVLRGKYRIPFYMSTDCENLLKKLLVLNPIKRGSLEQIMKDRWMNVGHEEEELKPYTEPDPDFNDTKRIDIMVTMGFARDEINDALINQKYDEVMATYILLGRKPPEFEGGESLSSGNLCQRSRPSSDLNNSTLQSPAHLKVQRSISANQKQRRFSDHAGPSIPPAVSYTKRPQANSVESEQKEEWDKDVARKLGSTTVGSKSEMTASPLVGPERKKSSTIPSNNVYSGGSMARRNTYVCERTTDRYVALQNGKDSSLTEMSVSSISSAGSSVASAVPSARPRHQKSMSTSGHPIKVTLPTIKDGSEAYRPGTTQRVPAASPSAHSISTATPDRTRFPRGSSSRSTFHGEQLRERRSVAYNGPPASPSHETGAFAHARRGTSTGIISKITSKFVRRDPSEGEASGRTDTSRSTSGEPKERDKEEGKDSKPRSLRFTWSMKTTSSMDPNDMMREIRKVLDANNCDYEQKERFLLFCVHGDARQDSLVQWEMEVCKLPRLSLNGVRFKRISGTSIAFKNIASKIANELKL
Tyrosine-protein kinase JAK3 (Homo sapiens), sequence (P52333 whole entry, the tested form may be a part): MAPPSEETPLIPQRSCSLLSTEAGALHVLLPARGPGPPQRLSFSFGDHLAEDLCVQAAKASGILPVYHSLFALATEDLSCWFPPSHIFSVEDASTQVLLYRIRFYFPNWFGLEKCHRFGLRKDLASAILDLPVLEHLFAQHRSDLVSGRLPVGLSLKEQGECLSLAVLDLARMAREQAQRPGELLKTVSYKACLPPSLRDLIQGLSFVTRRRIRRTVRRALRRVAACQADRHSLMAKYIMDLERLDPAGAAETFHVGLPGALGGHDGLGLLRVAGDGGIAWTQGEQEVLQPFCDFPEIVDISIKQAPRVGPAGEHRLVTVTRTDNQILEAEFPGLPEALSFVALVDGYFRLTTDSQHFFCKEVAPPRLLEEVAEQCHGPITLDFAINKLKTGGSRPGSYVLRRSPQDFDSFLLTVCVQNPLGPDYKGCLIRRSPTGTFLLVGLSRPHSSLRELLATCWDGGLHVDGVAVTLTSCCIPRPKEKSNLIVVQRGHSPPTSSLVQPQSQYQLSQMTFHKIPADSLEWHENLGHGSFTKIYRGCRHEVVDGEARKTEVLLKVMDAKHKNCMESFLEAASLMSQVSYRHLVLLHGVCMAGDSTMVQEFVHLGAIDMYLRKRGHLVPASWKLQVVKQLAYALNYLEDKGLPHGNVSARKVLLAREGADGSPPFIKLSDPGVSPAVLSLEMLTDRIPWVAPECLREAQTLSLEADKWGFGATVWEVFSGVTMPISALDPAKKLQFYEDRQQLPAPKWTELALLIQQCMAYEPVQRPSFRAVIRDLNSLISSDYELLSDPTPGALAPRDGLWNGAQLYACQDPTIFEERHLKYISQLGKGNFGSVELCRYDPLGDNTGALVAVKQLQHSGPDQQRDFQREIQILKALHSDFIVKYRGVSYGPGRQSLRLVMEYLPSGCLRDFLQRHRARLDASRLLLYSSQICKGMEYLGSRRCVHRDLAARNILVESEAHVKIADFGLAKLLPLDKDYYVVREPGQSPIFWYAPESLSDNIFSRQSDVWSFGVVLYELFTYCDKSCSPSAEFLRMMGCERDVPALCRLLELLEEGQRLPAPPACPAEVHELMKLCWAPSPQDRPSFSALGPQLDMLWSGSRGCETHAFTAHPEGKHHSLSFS
Proto-oncogene tyrosine-protein kinase receptor Ret (Homo sapiens), sequence (P07949 whole entry, the tested form may be a part): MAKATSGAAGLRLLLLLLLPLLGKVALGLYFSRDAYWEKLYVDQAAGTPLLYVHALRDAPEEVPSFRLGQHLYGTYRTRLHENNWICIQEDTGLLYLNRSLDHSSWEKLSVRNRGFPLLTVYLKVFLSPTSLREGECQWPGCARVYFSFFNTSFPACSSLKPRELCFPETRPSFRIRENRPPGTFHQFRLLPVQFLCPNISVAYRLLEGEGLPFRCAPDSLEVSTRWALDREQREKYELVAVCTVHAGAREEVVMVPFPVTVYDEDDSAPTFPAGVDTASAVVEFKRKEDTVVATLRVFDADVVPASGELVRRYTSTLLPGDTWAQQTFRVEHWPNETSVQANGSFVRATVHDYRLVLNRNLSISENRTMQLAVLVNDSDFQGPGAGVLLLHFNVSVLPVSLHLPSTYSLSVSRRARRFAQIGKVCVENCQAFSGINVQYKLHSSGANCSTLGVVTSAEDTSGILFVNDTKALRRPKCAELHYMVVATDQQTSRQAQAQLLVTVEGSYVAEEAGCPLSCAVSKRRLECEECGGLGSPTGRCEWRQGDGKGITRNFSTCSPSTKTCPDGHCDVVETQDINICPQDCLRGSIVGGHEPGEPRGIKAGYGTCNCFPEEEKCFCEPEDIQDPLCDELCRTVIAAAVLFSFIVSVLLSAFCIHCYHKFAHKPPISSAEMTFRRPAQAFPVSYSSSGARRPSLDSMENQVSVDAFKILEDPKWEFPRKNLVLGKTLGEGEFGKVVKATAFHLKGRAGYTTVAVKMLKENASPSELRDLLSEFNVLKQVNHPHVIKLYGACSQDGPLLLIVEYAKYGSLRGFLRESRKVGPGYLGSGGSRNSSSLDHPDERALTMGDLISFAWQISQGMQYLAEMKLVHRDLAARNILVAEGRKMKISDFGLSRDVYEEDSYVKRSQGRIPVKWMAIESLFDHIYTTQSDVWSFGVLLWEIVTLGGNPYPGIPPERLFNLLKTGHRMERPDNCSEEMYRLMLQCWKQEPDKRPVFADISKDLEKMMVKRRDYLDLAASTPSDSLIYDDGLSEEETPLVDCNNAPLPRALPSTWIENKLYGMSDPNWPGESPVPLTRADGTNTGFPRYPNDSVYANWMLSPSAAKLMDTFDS
Sphingosine kinase 1 (Homo sapiens), sequence (Q9NYA1 whole entry, the tested form may be a part): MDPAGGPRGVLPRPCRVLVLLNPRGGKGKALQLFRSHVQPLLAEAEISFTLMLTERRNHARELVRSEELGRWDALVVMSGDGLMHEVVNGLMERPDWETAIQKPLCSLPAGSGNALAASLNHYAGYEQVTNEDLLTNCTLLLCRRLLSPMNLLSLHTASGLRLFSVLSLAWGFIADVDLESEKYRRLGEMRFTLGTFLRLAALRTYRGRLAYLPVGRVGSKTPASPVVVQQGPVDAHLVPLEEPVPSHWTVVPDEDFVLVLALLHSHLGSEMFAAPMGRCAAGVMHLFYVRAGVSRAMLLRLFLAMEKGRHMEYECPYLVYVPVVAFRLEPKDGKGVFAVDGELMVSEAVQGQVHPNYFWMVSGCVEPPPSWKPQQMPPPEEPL

SMILES: CCN1CCN(Cc2ccc(Nc3ncc(F)c(-c4cc(F)c5nc(C)n(C(C)C)c5c4)n3)nc2)CC1 [ABEMACICLIB]
- inhibition [1]: 29%
- inhibition [2]: 18.3%
- inhibition [3]: 56.2%
- inhibition [4]: 14.7%
- inhibition [5]: 11%
- inhibition [6]: 4.5%
- inhibition [7]: 20.5%
- inhibition [8]: 2.2%
- inhibition [9]: 6%
- inhibition [10]: 6.5%
- inhibition [11]: 3.5%
- inhibition [12]: 8%
- inhibition [13]: 1.5%
- inhibition [14]: 30.5%
- inhibition [15]: 6%
- inhibition [16]: 30%
- inhibition [17]: 5.5%
- inhibition [18]: 3%
- inhibition [19]: 8%
- inhibition [20]: 11%
- inhibition [21]: 0.5%
- inhibition [22]: 53.1%
- inhibition [23]: 32.5%

SMILES: CCN1CC2(C1)CN(c1ccc(Nc3ncc(F)c(-c4cnn5c4[C@H](C)CCCC5)n3)nc1)C2
- inhibition [1]: 30.5%
- inhibition [2]: 75%
- inhibition [3]: 72%
- inhibition [4]: 1.5%
- inhibition [5]: 26%
- inhibition [6]: 1.5%
- inhibition [7]: 4%
- inhibition [8]: 10%
- inhibition [9]: 1%
- inhibition [10]: 4%
- inhibition [11]: 3.5%
- inhibition [12]: 7.5%
- inhibition [13]: 6%
- inhibition [14]: 28%
- inhibition [15]: 16.5%
- inhibition [16]: 61.5%
- inhibition [17]: 13.5%
- inhibition [18]: 9.5%
- inhibition [19]: 19.5%
- inhibition [20]: 4%
- inhibition [21]: 3%
- inhibition [22]: -2%
- inhibition [23]: 24.5%
